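Where inhibition never reached the appropriate level, the endpoint shown equals the highest concentration tested. Otherwise, values were interpolated linearly from a five-concentration, 48-hour dose response in 96-well plates. Abbreviation: GI50, concentration required for 50% inhibition of growth. Definition used: TGI = concentration required for complete inhibition of growth.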
Columns and labels:
Test in all cases: DTP human tumour cell line panel, 48 h
[1] = system: 786-0 renal
[2] = system: IGROV1 ovarian
[3] = system: K-562 leukemia
[4] = system: MDA-MB-435
[5] = system: MOLT-4 leukemia
[6] = system: OVCAR-3 ovarian
[7] = system: OVCAR-5 ovarian
[8] = system: PC-3 prostate
[9] = system: SK-MEL-5 melanoma
[10] = system: HOP-92 NSCLC

For CN(c1cccc(C(=O)O)c1)c1cc(O/N=[N+](\[O-])N(C)C)c([N+](=O)[O-])cc1[N+](=O)[O-], the GI50 [1] was > 100 µM, the TGI [1] was > 100 µM and the GI50 [2] was > 100 µM. The TGI [2] was > 100 µM, the GI50 [3] was 78.8 µM and the TGI [3] was > 100 µM. The GI50 [4] was > 100 µM, the TGI [4] was > 100 µM and the GI50 [5] was > 100 µM. For the same molecule, the TGI [5] was > 100 µM, the GI50 [6] was > 100 µM and the TGI [6] was > 100 µM. The GI50 [7] was > 100 µM, the TGI [7] was > 100 µM and the GI50 [8] was > 100 µM. The TGI [8] was > 100 µM, the GI50 [9] was > 100 µM and the TGI [9] was > 100 µM.
With CC1(Cl)C(=O)NC(=O)N([C@H]2C[C@H](O)[C@@H](CO)O2)C1N=[N+]=[N-] (stereo partly specified) the TGI [1] was > 100 µM, the TGI [10] was > 100 µM and the TGI [2] was > 100 µM. The TGI [3] was > 100 µM, the TGI [5] was > 100 µM and the TGI [6] was > 100 µM. For the same molecule, the TGI [7] was > 100 µM and the TGI [9] was > 100 µM.
With COc1ccc(-c2cc(=O)c3c(O)c(O)c(OC)cc3o2)cc1O the TGI [1] was > 100 µM, the TGI [10] was > 100 µM and the TGI [2] was > 100 µM. For the same molecule, the TGI [3] was > 100 µM, the TGI [5] was > 100 µM and the TGI [6] was > 100 µM. The TGI [7] was > 100 µM and the TGI [9] was > 100 µM.
In the case of COc1ccc(-n2nc(C)c3c(Nc4ccc(NC(=O)Nc5cccc(C(F)(F)F)c5)cc4)ncnc32)cc1, the GI50 [1] is reported as 1.56 µM, the TGI [1] is reported as 3.03 µM and the GI50 [10] is reported as 1.59 µM. The TGI [10] was 3.31 µM, the GI50 [2] was 2 µM and the TGI [2] was 4.18 µM. It also gave a GI50 [3] of 2.18 µM, a TGI [3] of 7.22 µM and a GI50 [4] of 1.8 µM. It also gave a TGI [4] of 3.78 µM, a GI50 [5] of 2.01 µM and a TGI [5] of 6.16 µM. It also gave a GI50 [6] of 1.74 µM, a TGI [6] of 3.92 µM and a GI50 [7] of 1.76 µM. It also gave a TGI [7] of 4.12 µM, a GI50 [8] of 1.49 µM and a TGI [8] of 3.9 µM. It also gave a GI50 [9] of 1.75 µM and a TGI [9] of 3.21 µM.
In the case of Cc1cccc(CNc2c3ccccc3nc3ccccc23)c1, the GI50 [1] is reported as 1.89 µM, the TGI [1] is reported as 4.09 µM and the GI50 [10] is reported as 1.22 µM. For the same molecule, the TGI [10] was 4.57 µM, the GI50 [2] was 2.17 µM and the TGI [2] was 6.79 µM. It also gave a GI50 [3] of 2.23 µM, a TGI [3] of 12.5 µM and a GI50 [4] of 1.66 µM. For the same molecule, the TGI [4] was 3.22 µM, the GI50 [5] was 3.06 µM and the TGI [5] was 11.3 µM. The GI50 [6] was 2.29 µM, the TGI [6] was 5.92 µM and the GI50 [7] was 1.92 µM. For the same molecule, the TGI [7] was 6.81 µM, the GI50 [8] was 1.99 µM and the TGI [8] was 7.11 µM. For the same molecule, the GI50 [9] was 1.7 µM and the TGI [9] was 3.14 µM.
In the case of O=C(NCCCN1CCN(CCCNC(=O)c2cccc3ccccc23)CC1)c1cccc2ccccc12, the TGI [1] is reported as > 100 µM, the TGI [10] is reported as 21.3 µM and the TGI [2] is reported as > 100 µM. The TGI [3] was > 100 µM, the TGI [5] was > 100 µM and the TGI [6] was > 100 µM. For the same molecule, the TGI [7] was > 100 µM and the TGI [9] was > 100 µM.
Cc1cc(NS(=O)(=O)c2ccc(NC(=O)c3ccc(Cl)c4c(Nc5ccc(S(=O)(=O)Nc6cc(C)on6)cc5)c5ccccc5nc34)cc2)no1 showed a TGI [1] of 32.2 µM, a TGI [10] of 46.2 µM and a TGI [2] of 49.7 µM. It also gave a TGI [3] of 64.3 µM, a TGI [5] of 77.3 µM and a TGI [6] of 33.4 µM. It also gave a TGI [7] of 38.6 µM and a TGI [9] of 55.4 µM.
For COC(=O)NC1(NC(=O)OC)NC(=O)c2ccccc2N1, the TGI [1] was > 100 µM, the TGI [2] was > 100 µM and the TGI [3] was > 100 µM. The TGI [5] was > 100 µM, the TGI [6] was > 100 µM and the TGI [7] was > 100 µM. For the same molecule, the TGI [8] was > 100 µM and the TGI [9] was > 100 µM.
Work on O=[N+]([O-])c1ccc(Sc2cccc[n+]2[O-])c2nonc12 yielded a GI50 [1] of 9.18 µM, a TGI [1] of 22.3 µM and a GI50 [10] of 5.45 µM. For the same molecule, the TGI [10] was 23.7 µM, the GI50 [2] was 3.21 µM and the TGI [2] was 14.5 µM. The GI50 [3] was 2.1 µM, the TGI [3] was > 100 µM and the GI50 [4] was 6.24 µM. For the same molecule, the TGI [4] was 20.1 µM, the GI50 [6] was 1.07 µM and the TGI [6] was 2.48 µM. For the same molecule, the GI50 [7] was 4.32 µM, the TGI [7] was 17.9 µM and the GI50 [8] was 2.6 µM. The TGI [8] was 13 µM, the GI50 [9] was 5.72 µM and the TGI [9] was 18.7 µM.
For CC1=CC(=O)NP(=O)(Oc2ccc(Cl)cc2)N1 (stereo unspecified), the TGI [1] was > 100 µM, the TGI [10] was > 100 µM and the TGI [2] was > 100 µM. The TGI [3] was > 100 µM, the TGI [5] was > 100 µM and the TGI [6] was > 100 µM. The TGI [7] was > 100 µM and the TGI [9] was > 100 µM.
In the case of CC(C)(C)OC(=O)N(CCCCN(CCCn1c2c(c3ccccc3c1=O)C(=O)c1ccccc1-2)C(=O)OC(C)(C)C)CCCn1c2c(c3ccccc3c1=O)C(=O)c1ccccc1-2, the GI50 [1] is reported as 26.8 µM, the TGI [1] is reported as > 100 µM and the GI50 [10] is reported as 97 µM. The TGI [10] was > 100 µM, the GI50 [3] was 90.5 µM and the TGI [3] was > 100 µM. For the same molecule, the GI50 [4] was 68.7 µM, the TGI [4] was > 100 µM and the GI50 [5] was > 100 µM. For the same molecule, the TGI [5] was > 100 µM, the GI50 [6] was 69.6 µM and the TGI [6] was > 100 µM. For the same molecule, the GI50 [8] was 27.7 µM, the TGI [8] was > 100 µM and the GI50 [9] was 48.5 µM. The TGI [9] was > 100 µM.
With O=C(c1ccc(Cl)cc1Cl)N1CCN(C(=O)c2ccc(Cl)cc2Cl)C1=S the GI50 [1] was 18.6 µM, the TGI [1] was 42.3 µM and the GI50 [10] was 7.83 µM. It also gave a TGI [10] of 28.5 µM, a GI50 [2] of 21 µM and a TGI [2] of 46 µM. For the same molecule, the GI50 [3] was 31.4 µM, the TGI [3] was > 100 µM and the GI50 [4] was 16.4 µM. For the same molecule, the TGI [4] was 33.7 µM, the GI50 [5] was 20.5 µM and the TGI [5] was 43.5 µM. It also gave a GI50 [6] of 19.7 µM, a TGI [6] of 42.4 µM and a GI50 [7] of 21.6 µM. It also gave a TGI [7] of 60.4 µM, a GI50 [8] of 22.7 µM and a TGI [8] of 68.3 µM.
In the case of O=CNC(Cc1cnc[nH]1)C(=O)O (stereo unspecified), the TGI [1] is reported as > 100 µM, the TGI [10] is reported as > 100 µM and the TGI [2] is reported as > 100 µM. The TGI [3] was > 100 µM, the TGI [4] was > 100 µM and the TGI [6] was > 100 µM. For the same molecule, the TGI [7] was > 100 µM, the TGI [8] was > 100 µM and the TGI [9] was > 100 µM.
Molecule CCCCC[C@@H]1CCCC2NC(CCCCCO[Si](c3ccccc3)(c3ccccc3)C(C)(C)C)CCC21 (stereo partly specified) has a TGI [1] of 33.2 µM, a TGI [10] of 22.8 µM and a TGI [2] of 32.9 µM. For the same molecule, the TGI [3] was 20.9 µM, the TGI [5] was 29.4 µM and the TGI [6] was 30.7 µM. It also gave a TGI [7] of 34.8 µM and a TGI [9] of 35.3 µM.
In the case of COCN1COCN(C)C1=O, the TGI [1] is reported as > 100 µM, the TGI [10] is reported as > 100 µM and the TGI [2] is reported as > 100 µM. The TGI [3] was > 100 µM, the TGI [6] was > 100 µM and the TGI [7] was > 100 µM. The TGI [9] was > 100 µM.
COc1ccccc1/C=C1\C(=O)N(C(=O)Cc2ccccc2)N=C1C was tested, and the TGI [1] was > 100 µM, the TGI [3] was > 100 µM and the TGI [5] was > 100 µM. For the same molecule, the TGI [6] was > 100 µM, the TGI [7] was > 100 µM and the TGI [9] was > 100 µM.
With O=C1/C(=C/c2ccc(F)cc2)COc2ccc(O)c(O)c21 the GI50 [1] was 1.84 µM, the TGI [1] was 5.63 µM and the GI50 [2] was 1.1 µM. The TGI [2] was 3.94 µM, the GI50 [3] was 0.354 µM and the TGI [3] was > 100 µM. For the same molecule, the GI50 [4] was 2.07 µM, the TGI [4] was 8.78 µM and the GI50 [5] was 1.37 µM. For the same molecule, the TGI [5] was > 100 µM, the GI50 [6] was 0.864 µM and the TGI [6] was 9.4 µM. It also gave a GI50 [7] of 3 µM, a TGI [7] of 8.99 µM and a GI50 [8] of 1.16 µM. The TGI [8] was > 100 µM, the GI50 [9] was 3.16 µM and the TGI [9] was 11.7 µM.

Source: PubChem BioAssay (NCI)
